Laboratory results as given in ChEMBL document CHEMBL5038628, “Discovery of spiro amide SHR902275: A potent, selective, and efficacious RAF inhibitor targeting RAS mutant cancers” (Eur J Med Chem, 2022).
In brackets after ≈: the same amount, converted by molar mass. Activity calls are given as the source filed them. No cut-off for these calls is given here.

How the values were obtained:
[1] = Solubility of the compound at pH 7.4; conditions: buffer
[2] = target: Cytochrome P450 2C9 (Homo sapiens, UniProt P11712); test: Inhibition of CYP2C9 (unknown origin)
Chain of Cytochrome P450 2C9 (P11712 whole entry): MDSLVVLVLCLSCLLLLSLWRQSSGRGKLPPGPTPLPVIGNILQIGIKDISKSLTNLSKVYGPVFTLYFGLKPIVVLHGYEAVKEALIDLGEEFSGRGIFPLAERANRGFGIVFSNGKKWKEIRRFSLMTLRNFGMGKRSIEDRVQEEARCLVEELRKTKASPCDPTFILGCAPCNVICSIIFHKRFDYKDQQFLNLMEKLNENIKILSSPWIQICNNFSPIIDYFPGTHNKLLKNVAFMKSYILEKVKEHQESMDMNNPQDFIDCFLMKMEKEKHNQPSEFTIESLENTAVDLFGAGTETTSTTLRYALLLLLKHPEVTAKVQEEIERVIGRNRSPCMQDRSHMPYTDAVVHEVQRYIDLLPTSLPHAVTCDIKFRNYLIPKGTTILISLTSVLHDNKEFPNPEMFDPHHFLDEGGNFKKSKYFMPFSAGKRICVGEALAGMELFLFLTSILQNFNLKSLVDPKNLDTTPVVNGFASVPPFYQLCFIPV

[3] = Fraction unbound in mouse plasma; format: ADME, cell-free
[4] = Oral bioavailability in Sprague-Dawley rat by LC-MS/MS analysis; format: ADME, organism-based; conditions: in vivo
[5] = Apparent permeability across apical to basolateral membrane in human Caco-2 cells
[6] = target: Serine/threonine-protein kinase B-raf (Homo sapiens, UniProt P15056); test: Inhibition of human recombinant wild type BRAF measured after 60 mins by TR-FRET assay
Chain of Serine/threonine-protein kinase B-raf (Homo sapiens, UniProt P15056) (P15056 whole entry): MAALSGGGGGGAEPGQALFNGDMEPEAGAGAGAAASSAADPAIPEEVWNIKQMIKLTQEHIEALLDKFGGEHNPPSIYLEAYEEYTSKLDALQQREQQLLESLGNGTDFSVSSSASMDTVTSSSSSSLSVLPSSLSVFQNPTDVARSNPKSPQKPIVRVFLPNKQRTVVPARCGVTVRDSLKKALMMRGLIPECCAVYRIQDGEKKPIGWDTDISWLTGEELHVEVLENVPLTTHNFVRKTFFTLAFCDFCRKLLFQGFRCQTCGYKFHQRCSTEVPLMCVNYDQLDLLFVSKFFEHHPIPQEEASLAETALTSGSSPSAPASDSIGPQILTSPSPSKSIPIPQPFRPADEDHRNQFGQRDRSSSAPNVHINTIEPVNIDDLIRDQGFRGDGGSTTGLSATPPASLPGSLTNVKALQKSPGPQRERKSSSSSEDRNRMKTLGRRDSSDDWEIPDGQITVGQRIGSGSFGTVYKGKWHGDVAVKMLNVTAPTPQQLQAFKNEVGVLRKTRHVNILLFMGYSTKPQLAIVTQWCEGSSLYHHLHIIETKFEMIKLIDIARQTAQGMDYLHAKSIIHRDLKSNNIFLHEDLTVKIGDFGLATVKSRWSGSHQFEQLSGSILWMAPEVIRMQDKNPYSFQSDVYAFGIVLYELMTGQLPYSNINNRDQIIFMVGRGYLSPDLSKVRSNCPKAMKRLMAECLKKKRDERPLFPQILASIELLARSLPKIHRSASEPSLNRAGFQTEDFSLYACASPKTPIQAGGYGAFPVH

[7] = Fraction unbound in human plasma; format: ADME, cell-free
[8] = target: P-gp (ABCB1) (Homo sapiens, UniProt P08183); test: Substrate activity at P-gp in human Caco-2 cells assessed as efflux ratio of permeability
[9] = target: Cytochrome P450 2C19 (Homo sapiens, UniProt P33261); test: Inhibition of CYP2C19 (unknown origin)
Chain of Cytochrome P450 2C19 (P33261 whole entry): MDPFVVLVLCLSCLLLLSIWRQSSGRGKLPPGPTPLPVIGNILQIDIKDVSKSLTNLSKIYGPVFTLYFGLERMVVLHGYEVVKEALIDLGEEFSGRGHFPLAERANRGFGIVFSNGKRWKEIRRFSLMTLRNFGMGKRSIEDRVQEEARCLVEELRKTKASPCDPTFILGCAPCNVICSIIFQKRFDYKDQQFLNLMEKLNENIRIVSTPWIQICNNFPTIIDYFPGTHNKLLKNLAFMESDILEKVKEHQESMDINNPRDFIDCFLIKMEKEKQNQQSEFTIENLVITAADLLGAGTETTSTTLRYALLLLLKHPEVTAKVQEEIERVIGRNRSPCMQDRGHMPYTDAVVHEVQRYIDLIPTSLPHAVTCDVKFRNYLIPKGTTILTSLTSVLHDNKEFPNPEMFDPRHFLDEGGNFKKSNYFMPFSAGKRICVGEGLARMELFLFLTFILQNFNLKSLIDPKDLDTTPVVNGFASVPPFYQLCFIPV

[10] = target: Voltage-gated inwardly rectifying potassium channel KCNH2 (Homo sapiens, UniProt Q12809)
Chain of Voltage-gated inwardly rectifying potassium channel KCNH2 (Q12809 whole entry): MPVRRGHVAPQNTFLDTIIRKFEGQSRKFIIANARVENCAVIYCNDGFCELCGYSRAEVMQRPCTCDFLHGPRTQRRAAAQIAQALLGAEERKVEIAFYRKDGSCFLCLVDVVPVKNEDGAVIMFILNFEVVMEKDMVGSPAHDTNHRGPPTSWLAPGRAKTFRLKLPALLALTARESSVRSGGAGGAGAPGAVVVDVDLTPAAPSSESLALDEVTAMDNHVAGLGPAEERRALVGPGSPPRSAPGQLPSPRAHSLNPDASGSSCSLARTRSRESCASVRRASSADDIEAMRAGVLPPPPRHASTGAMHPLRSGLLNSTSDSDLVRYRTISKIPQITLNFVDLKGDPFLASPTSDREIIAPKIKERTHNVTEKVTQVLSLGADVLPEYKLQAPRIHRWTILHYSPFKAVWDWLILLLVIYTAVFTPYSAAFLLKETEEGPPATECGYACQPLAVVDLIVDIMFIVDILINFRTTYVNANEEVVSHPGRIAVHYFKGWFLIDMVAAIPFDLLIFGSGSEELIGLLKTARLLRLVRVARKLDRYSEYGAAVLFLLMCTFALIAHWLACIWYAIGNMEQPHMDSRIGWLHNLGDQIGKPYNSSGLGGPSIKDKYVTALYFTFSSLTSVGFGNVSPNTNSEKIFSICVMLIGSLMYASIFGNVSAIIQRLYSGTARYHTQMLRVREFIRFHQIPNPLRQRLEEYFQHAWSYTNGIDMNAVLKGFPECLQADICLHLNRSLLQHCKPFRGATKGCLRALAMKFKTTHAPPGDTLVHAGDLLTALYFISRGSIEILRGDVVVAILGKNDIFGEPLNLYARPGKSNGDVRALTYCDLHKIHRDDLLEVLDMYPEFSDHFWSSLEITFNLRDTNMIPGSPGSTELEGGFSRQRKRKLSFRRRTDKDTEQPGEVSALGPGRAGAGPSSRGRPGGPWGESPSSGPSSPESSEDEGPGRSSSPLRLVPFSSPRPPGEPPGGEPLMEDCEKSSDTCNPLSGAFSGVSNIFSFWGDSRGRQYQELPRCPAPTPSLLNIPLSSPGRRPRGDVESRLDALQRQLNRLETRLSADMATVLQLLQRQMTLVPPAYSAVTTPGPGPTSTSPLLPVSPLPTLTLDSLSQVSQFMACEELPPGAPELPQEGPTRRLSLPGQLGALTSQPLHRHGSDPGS

[11] = tested on: SK-MEL-2; test: Cytotoxicity against human SK-MEL-2 cells assessed as inhibition of growth measured after 72 hrs by CellTiter-Glo luciferase assay; format: functional
[12] = tested on: NCI-H358; test: Cytotoxicity against human NCI-H358 cells assessed as inhibition of growth measured after 72 hrs by CellTiter-Glo luciferase assay; format: functional
[13] = target: T1, Cytochrome P450 3A4 (Homo sapiens, UniProt P08684); test: Inhibition of CYP3A4 (unknown origin) using midazolam as substrate
T1 sequence (P08684 whole entry): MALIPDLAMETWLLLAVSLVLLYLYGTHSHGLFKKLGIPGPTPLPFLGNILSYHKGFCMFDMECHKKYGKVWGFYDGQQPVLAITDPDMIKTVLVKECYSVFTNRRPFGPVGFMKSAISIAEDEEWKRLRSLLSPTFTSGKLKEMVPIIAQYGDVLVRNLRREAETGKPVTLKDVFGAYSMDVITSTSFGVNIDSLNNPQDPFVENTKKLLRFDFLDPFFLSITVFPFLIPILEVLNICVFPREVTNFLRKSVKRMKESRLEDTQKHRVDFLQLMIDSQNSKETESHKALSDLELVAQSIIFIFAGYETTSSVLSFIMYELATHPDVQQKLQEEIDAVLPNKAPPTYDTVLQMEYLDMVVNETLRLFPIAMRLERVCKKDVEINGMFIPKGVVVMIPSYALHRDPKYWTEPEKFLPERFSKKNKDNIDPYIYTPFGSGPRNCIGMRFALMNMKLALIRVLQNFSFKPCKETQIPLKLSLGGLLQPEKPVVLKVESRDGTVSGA

[14] = Fraction unbound in rat plasma; format: ADME, cell-free
[15] = target: Serine/threonine-protein kinase B-raf (Homo sapiens, UniProt P15056, V600E); test: Inhibition of human recombinant BRAF V600E mutant measured after 60 mins by TR-FRET assay
Chain of Serine/threonine-protein kinase B-raf (Homo sapiens, UniProt P15056, V600E) (P15056 2-766 V600E limits assumed): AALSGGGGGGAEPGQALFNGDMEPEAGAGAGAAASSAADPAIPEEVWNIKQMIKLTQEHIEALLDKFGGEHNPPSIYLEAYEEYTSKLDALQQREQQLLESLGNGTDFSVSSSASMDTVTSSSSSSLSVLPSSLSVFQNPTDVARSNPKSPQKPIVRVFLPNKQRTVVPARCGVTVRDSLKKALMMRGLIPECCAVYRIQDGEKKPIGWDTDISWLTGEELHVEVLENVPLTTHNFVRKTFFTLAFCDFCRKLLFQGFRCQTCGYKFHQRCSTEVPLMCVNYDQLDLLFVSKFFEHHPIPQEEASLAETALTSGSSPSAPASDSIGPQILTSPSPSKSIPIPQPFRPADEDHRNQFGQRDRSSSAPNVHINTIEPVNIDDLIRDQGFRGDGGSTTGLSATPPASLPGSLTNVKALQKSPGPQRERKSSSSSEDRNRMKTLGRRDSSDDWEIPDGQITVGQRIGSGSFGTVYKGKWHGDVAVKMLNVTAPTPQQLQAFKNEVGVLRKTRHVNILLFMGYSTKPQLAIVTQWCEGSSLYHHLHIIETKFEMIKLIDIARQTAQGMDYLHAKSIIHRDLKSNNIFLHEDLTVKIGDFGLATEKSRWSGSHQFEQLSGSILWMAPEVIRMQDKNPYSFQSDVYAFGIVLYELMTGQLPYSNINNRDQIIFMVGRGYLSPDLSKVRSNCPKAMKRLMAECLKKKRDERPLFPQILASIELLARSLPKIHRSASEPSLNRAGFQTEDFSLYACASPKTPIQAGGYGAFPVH

[16] = target: Cytochrome P450 2D6 (Homo sapiens, UniProt P10635); test: Inhibition of CYP2D6 (unknown origin)
[17] = Metabolic stability in mouse liver microsomes assessed as half life; format: ADME, Microsome
[18] = Cmax in Sprague-Dawley rat plasma at 2 mg/kg, IG by LC-MS/MS analysis; format: ADME, organism-based; parameters: route […], dose 2 mg/kg; conditions: po
[19] = target: T2, Cytochrome P450 1A2 (Homo sapiens, UniProt P05177); test: Inhibition of CYP1A2 (unknown origin)
T2 sequence (P05177 whole entry): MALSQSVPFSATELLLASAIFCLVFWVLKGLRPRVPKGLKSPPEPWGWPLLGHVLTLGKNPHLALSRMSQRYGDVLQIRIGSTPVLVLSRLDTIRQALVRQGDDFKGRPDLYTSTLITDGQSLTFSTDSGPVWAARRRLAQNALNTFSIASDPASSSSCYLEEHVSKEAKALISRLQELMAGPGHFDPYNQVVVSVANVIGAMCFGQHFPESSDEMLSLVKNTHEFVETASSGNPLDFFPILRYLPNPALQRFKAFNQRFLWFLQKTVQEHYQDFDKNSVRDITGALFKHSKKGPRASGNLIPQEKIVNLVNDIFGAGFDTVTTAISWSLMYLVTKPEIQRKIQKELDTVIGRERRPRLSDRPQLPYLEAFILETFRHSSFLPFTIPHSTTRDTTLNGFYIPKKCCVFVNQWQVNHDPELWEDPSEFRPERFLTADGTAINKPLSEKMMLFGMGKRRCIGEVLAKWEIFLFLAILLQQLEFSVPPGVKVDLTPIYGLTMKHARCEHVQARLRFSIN

[20] = Metabolic stability in rat liver microsomes assessed as half life; format: ADME, Microsome
[21] = target: T1, Cytochrome P450 3A4; test: Inhibition of CYP3A4 (unknown origin) using testosterone as substrate
[22] = Metabolic stability in human liver microsomes assessed as half life; format: ADME, Microsome
[23] = tested on: A-375; test: Cytotoxicity against human A-375 cells assessed as inhibition of growth measured after 72 hrs by CellTiter-Glo luciferase assay; format: functional
[24] = AUC (0 to t) in Sprague-Dawley rat plasma at 2 mg/kg, IG by LC-MS/MS analysis; format: ADME, organism-based; parameters: dose 2 mg/kg; conditions: po
[25] = tested on: Calu-6; test: Antitumor activity against human Calu-6 cells xenografted in nude mouse assessed as tumor growth inhibition at 30 mg/kg,IT QD for 12 days relative to control; format: functional; conditions: Calu-6, 288 h, time 12 day, read-out: TGI
[26] = tested on: Calu-6; test: Cytotoxicity against human Calu-6 cells assessed as inhibition of growth measured after 72 hrs by CellTiter-Glo luciferase assay; format: functional
[27] = target: RAF proto-oncogene serine/threonine-protein kinase (Homo sapiens, UniProt P04049); test: Inhibition of human recombinant cRAF measured after 60 mins by TR-FRET assay
Chain of RAF proto-oncogene serine/threonine-protein kinase (P04049 whole entry): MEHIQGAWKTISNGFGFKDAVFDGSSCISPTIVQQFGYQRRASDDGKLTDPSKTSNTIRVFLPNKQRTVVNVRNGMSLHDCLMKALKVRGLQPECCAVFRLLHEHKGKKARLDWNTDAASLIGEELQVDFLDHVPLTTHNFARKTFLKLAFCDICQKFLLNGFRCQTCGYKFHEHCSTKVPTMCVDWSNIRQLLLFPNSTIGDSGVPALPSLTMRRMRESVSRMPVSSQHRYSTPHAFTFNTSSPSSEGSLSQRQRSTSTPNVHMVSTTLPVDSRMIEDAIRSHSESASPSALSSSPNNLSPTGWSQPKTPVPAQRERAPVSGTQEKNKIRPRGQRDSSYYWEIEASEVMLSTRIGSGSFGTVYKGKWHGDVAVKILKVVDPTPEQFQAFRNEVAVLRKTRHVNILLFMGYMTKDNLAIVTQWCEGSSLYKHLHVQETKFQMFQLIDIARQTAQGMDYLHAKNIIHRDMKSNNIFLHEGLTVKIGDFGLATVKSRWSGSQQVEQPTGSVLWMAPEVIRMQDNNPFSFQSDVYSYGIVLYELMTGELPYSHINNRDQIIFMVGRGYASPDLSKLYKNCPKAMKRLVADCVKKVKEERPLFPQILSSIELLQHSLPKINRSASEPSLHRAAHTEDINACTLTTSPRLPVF

[28] = Apparent permeability across basolateral to apical membrane in human Caco-2 cells
[29] = Toxicity in nude mouse assessed as reduction in body weight measured at 5 to 30 mg/kg,IT BID for 14 days; format: organism-based; conditions: in vivo, other, 336 h, dose 5-30 mg/kg, time 14 day
[30] = AUC (0 to t) in C57 mouse at 2 mg/kg, IG; format: ADME, organism-based; parameters: dose 2 mg/kg; conditions: in vivo, po
[31] = AUC (0 to t) in Sprague-Dawley rat plasma at 20 mg/kg, IG by LC-MS/MS analysis; format: ADME, organism-based; parameters: dose 20 mg/kg; conditions: po
[32] = Half life in C57 mouse at 1 mg/kg, iv; format: ADME, organism-based; conditions: in vivo
[33] = Oral bioavailability in C57 mouse; format: ADME, organism-based; conditions: in vivo
[34] = target: T3, Eukaryotic translation initiation factor 2-alpha kinase 3 (Homo sapiens) (UniProt Q9NZJ5); test: Inhibition of human His-tagged PERK by TR-FRET assay
T3 sequence (whole entry): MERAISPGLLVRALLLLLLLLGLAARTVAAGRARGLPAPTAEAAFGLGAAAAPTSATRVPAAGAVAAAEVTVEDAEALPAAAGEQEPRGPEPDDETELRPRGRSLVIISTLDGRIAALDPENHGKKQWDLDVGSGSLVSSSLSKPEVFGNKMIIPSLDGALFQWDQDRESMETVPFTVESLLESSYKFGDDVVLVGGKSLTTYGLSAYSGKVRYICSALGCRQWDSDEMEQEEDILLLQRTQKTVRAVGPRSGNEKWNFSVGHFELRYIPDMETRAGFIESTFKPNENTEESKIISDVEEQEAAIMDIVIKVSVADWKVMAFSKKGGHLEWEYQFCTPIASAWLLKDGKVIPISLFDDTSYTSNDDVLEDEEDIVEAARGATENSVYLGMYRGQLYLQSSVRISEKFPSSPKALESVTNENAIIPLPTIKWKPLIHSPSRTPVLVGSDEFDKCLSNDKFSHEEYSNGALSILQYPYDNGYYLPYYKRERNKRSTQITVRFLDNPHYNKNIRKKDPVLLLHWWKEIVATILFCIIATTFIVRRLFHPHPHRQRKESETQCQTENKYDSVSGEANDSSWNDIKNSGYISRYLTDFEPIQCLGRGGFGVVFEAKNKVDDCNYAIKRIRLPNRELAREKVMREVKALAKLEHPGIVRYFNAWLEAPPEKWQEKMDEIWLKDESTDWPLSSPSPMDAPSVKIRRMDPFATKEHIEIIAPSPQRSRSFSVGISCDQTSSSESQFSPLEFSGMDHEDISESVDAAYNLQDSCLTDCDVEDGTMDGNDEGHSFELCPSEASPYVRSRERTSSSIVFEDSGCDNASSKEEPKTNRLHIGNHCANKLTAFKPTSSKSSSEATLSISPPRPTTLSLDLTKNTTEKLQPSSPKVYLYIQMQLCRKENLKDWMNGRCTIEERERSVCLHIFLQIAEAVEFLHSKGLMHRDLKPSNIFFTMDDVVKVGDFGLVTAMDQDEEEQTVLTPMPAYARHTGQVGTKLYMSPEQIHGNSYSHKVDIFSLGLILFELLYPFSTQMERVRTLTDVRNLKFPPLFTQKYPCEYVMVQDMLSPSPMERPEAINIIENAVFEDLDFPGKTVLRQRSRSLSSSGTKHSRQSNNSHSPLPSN

[35] = Half life in Sprague-Dawley rat plasma at 1 mg/kg, iv by LC-MS/MS analysis; format: ADME, organism-based; conditions: Sprague-Dawley, plasma
[36] = Clearance in Sprague-Dawley rat plasma at 1 mg/kg, iv by LC-MS/MS analysis; format: ADME, organism-based
[37] = tested on: Calu-6; test: Antitumor activity against human Calu-6 cells xenografted in nude mouse assessed as tumor growth inhibition at 5 to 30 mg/kg,IT BID for 14 days relative to control; format: functional, organism-based; conditions: dose 5-30 mg/kg, time 14.0 day
[38] = Cmax in C57 mouse at 2 mg/kg, IG; format: ADME, organism-based; parameters: route […], dose 2 mg/kg; conditions: in vivo, po
[39] = Cmax in Sprague-Dawley rat plasma at 20 mg/kg, IG by LC-MS/MS analysis; format: ADME, organism-based; parameters: route […], dose 20 mg/kg; conditions: po
[40] = Clearance in C57 mouse at 1 mg/kg, iv; format: ADME, organism-based; conditions: in vivo
[41] = AUC (0-t) in Sprague-Dawley rat plasma assessed as parent compound at 121 mg/kg, IG by LC-MS/MS analysis; format: ADME, organism-based; parameters: dose 121 mg/kg; conditions: in vivo, po
[42] = Cmax in Sprague-Dawley rat plasma assessed as parent compound at 121 mg/kg, IG by LC-MS/MS analysis; format: ADME, organism-based; parameters: route […], dose 121 mg/kg; conditions: in vivo, po
[43] = Cmax in Sprague-Dawley rat assessed as parent compound at 24 mg/kg, IG by LC-MS/MS analysis; format: ADME, organism-based, Plasma; parameters: route […], dose 24 mg/kg; conditions: in vivo, po

Cc1ccc(NC(=O)c2ccnc(C(F)(F)F)c2)cc1-c1ccc2c(c1)OC1(CCOCC1)CC(=O)N2
solubility [1]: 0.9 µM (≈ 0.46 µg/mL)
IC50 [2]: 10300 nM
fraction unbound [3]: 0.012
F [4]: 18.7%
Papp A→B [5]: 15.7 ×10⁻⁶ cm/s
IC50 [6]: 12 nM
fraction unbound [7]: 0.004
efflux ratio [8]: 2.53
IC50 [9]: > 30000 nM
IC50 [10]: 3000 nM
GI50 [11]: 230 nM
GI50 [12]: 1700 nM
IC50 [13]: > 30000 nM
fraction unbound [14]: 0.009
IC50 [15]: 11 nM
IC50 [16]: > 30000 nM
half-life [17]: > 2.32 h
Cmax [18]: 47.3 ng/mL
IC50 [19]: > 30000 nM
half-life [20]: 0.748 h
IC50 [21]: 13200 nM
half-life [22]: 2.32 h
GI50 [23]: 150 nM
AUCt ([24]; in vivo): 3.12 ng·h/mL
inhibition in vivo at 30 mg/kg [25]: 41%
GI50 [26]: 350 nM
IC50 [27]: 5.1 nM
Papp B→A [28]: 39.8 ×10⁻⁶ cm/s

Cc1ccc(NC(=O)c2cc(C(F)(F)F)cnn2)cc1-c1ccc2c(c1)OC1(CCOCC1)CC(=O)N2
fraction unbound [3]: 0.018
bioavailability ([4]; Sprague-Dawley): 101%
Activity [29]: Non-Toxic
IC50 [6]: 10 nM
fraction unbound [7]: 0.006
AUC(0-t) [30]: 5410 ng·h/mL
AUC(0-t) [31]: 21800 ng·h/mL
half-life [32]: 3.6 h
bioavailability [33]: 112%
GI50 [11]: 320 nM
GI50 [12]: 1400 nM
fraction unbound [14]: 0.06
IC50 [15]: 5.7 nM
inhibition [34]: Active
half-life [17]: > 2.32 h
half-life [35]: 1.6 h
Cmax [18]: 956 ng/mL
half-life [20]: 1.24 h
clearance [36]: 7.2 mL/min/kg
half-life [22]: 1.77 h
GI50 [23]: 170 nM
AUC(0-t) ([24]; Sprague-Dawley, plasma): 4700 ng·h/mL
GI50 [26]: 400 nM
IC50 [27]: 1.6 nM
TGI [37]: Dose-Dependent Effect
Cmax [38]: 953 ng/mL
Cmax [39]: 2810 ng/mL
clearance [40]: 6.8 mL/min/kg

Cc1ccc(NC(=O)c2cc(C(F)(F)F)cnn2)cc1-c1ccc2c(c1)OC1(CCOCC1)CC(=O)N2COP(=O)(O)O
AUCt [41]: 132780 ng·h/mL
Cmax [42]: 10740 ng/mL
Cmax [43]: 2848 ng/mL
